The nature of data set [1]: Elimination half life in CD-1 mouse at 50 mg/kg, po measured after 1 to 24 hrs by HPLC-MS/MS analysis. Format: ADME, organism-based. Conditions: in vivo, time 1-24 hrs, read-out: beta t1/2 (converted).
Data set [2] is described as follows: Clearance in CD-1 mouse at 5 mg/kg, iv measured after 1 to 24 hrs by HPLC-MS/MS analysis. The class given is ADME, organism-based. Conditions: in vivo, time 1-24 hrs.
A short description of data set [3]: Volume of distribution at steady state in CD-1 mouse at 5 mg/kg, iv measured after 1 to 24 hrs by HPLC-MS/MS analysis. The class given is ADME, organism-based. Particulars: in vivo, time 1-24 hrs, read-out: Vdss.
Data set [4] can be described thus: Plasma concentration in athymic nu/nu CD-1 mouse at 100 mg/kg, po measured at 1 hr by HPLC - UV analysis. The class given is ADME, organism-based.
A short description of data set [5]: Plasma concentration in athymic nu/nu CD-1 mouse at 100 mg/kg, po measured at 16 hrs by HPLC - UV analysis. Format: ADME, organism-based.
In data set [6] the target is Cytochrome P450 3A4 (Homo sapiens, UniProt P08684). Put plainly: Inhibition of CYP3A4 (unknown origin) using luciferin as substrate in presence of NADPH generating system incubated for 20 mins by luminescent method. The class given is ADME.
Cytochrome P450 3A4, sequence (P08684 whole entry): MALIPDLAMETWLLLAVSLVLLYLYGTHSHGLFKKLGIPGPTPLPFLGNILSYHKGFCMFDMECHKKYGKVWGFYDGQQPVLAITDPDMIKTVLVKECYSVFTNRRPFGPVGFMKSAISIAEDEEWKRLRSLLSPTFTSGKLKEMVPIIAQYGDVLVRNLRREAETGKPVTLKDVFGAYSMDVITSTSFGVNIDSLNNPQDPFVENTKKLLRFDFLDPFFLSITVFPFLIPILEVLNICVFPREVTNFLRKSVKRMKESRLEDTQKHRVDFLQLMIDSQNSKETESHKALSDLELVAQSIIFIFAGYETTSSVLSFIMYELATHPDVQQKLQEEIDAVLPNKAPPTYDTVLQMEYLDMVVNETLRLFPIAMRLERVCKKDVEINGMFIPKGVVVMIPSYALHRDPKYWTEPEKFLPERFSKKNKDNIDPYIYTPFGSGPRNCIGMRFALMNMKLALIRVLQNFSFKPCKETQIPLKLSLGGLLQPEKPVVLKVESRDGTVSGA
Data set [7] can be described thus: Oral bioavailability in CD-1 mouse administered at 50 mg/kg measured after 1 to 24 hrs by HPLC-MS/MS analysis. The class given is ADME, organism-based. Conditions: in vivo, time 1-24 hrs.
A short description of data set [8]: Cmax in CD-1 mouse at 50 mg/kg, po measured after 1 to 24 hrs by HPLC-MS/MS analysis. Format: ADME, organism-based. Particulars: in vivo, time 1-24 hrs.
The nature of data set [9]: Plasma concentration in athymic nu/nu CD-1 mouse at 100 mg/kg, po measured at 8 hrs by HPLC - UV analysis. The class given is ADME, organism-based.
Data set [10] in a line: AUC (0 to infinity) in CD-1 mouse at 50 mg/kg, po measured after 1 to 24 hrs by HPLC-MS/MS analysis. Format: ADME, organism-based. Conditions: in vivo, time 1-24 hrs.
Data set [11] is described as follows: Elimination half life in CD-1 mouse at 5 mg/kg, iv measured after 1 to 24 hrs by HPLC-MS/MS analysis. Format: ADME, organism-based. Particulars: in vivo, time 1-24 hrs, read-out: beta t1/2 (converted).
Data set [12] is described as follows: Plasma concentration in athymic nu/nu CD-1 mouse at 100 mg/kg, po measured at 4 hrs by HPLC - UV analysis. The class given is ADME, organism-based.
Data set [13] in a line: Oral bioavailability in CD-1 mouse administered at 25 mg/kg measured after 1 to 24 hrs by HPLC-MS/MS analysis. The class given is ADME, organism-based. Conditions: in vivo, time 1-24 hrs.
Data set [14] deals with T1, Insulin-like growth factor 1 receptor (Homo sapiens, UniProt P08069). Put plainly: Inhibition of human recombinant IGF-1 receptor expressed in mouse 3T3 cells treated for 15 mins by ELISA analysis. Format: cell-based. (In general: An ELISA detects its analyte on a solid surface through an enzyme-linked reagent.)
T1 sequence (P08069 31-736 limits assumed): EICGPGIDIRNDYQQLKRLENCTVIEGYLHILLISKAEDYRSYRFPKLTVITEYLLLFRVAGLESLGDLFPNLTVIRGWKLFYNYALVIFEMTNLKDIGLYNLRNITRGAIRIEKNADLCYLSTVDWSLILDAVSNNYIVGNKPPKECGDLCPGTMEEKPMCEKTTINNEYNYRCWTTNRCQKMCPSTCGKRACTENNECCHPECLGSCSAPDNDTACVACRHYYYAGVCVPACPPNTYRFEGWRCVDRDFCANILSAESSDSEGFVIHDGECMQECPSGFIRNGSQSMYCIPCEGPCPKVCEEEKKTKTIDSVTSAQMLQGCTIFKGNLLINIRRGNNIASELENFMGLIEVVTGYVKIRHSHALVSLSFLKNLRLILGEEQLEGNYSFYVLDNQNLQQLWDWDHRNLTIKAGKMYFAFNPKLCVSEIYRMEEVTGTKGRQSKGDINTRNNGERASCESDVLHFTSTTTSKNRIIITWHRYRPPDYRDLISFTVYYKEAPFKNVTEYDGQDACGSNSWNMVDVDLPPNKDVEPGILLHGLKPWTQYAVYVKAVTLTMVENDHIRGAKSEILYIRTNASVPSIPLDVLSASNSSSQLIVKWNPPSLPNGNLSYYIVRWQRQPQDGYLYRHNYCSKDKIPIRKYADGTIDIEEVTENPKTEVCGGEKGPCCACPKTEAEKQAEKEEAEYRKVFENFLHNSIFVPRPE
T1 sequence (P08069 741-1367 limits assumed): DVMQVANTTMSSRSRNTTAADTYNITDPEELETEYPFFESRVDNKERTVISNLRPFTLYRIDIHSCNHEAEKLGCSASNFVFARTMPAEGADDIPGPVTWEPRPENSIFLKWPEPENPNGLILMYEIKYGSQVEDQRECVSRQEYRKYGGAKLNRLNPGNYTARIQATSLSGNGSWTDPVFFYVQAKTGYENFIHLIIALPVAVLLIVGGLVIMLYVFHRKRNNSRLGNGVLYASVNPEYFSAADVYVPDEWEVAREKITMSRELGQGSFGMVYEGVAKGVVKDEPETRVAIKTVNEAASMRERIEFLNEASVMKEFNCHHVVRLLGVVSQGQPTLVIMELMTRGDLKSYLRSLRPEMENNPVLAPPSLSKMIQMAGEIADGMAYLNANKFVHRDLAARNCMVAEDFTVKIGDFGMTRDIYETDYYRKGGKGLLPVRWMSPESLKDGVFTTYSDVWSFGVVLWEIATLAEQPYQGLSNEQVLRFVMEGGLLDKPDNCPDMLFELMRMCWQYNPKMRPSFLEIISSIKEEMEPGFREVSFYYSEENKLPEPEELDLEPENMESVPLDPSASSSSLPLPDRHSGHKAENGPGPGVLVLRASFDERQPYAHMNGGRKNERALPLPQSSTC
Data set [15] concerns the target T1, Insulin-like growth factor 1 receptor. Put plainly: Inhibition of human recombinant IGF-1 receptor in presence of ATP by ELISA analysis.
Data set [16] in a line: in vitro. Conditions: human, liver microsomes. For orientation: Liver microsomes are vesicles of endoplasmic reticulum, rich in cytochrome P450 enzymes.
Description: Microsomal stability in human liver microsomes assessed as extraction ratio in presence of NADPH for 0 to 40 mins by LC-MS/MS analysis
The nature of data set [17]: Elimination half life in CD-1 mouse at 10 mg/kg, iv measured after 1 to 24 hrs by HPLC-MS/MS analysis. Particulars: in vivo, time 1-24 hrs, read-out: beta t1/2 (converted). The class given is ADME, organism-based.
The nature of data set [18]: in vitro. Conditions: mouse, liver microsomes.
Description: Microsomal stability in mouse liver microsomes assessed as extraction ratio in presence of NADPH for 0 to 40 mins by LC-MS/MS analysis
Data set [19] can be described thus: Volume of distribution at steady state in CD-1 mouse at 10 mg/kg, iv measured after 1 to 24 hrs by HPLC-MS/MS analysis. Format: ADME, organism-based. Conditions: in vivo, time 1-24 hrs, read-out: Vdss.
Data set [20] can be described thus: Cmax in Sprague-Dawley rat at 20 mg/kg, po measured after 1 to 24 hrs by HPLC-MS/MS analysis. Conditions: in vivo, time 1-24 hrs. The class given is ADME, organism-based.
A short description of data set [21]: Microsomal stability in dog liver microsomes assessed as extraction ratio in presence of NADPH for 0 to 40 mins by LC-MS/MS analysis. Format: ADME, Canis lupus familiaris, Microsome. Particulars: time 0-40 min, read-out: ERH.
A short description of data set [22]: Plasma concentration in Sprague-Dawley rat at 20 mg/kg, po measured after 24 hrs by HPLC-MS/MS analysis. The class given is ADME, organism-based.
A short description of data set [23]: Elimination half life in Sprague-Dawley rat at 5 mg/kg, iv measured after 1 to 24 hrs by HPLC-MS/MS analysis. Format: ADME, organism-based. Particulars: in vivo, time 1-24 hrs, read-out: beta t1/2 (converted).
Data set [24] in a line: Clearance in CD-1 mouse at 10 mg/kg, iv measured after 1 to 24 hrs by HPLC-MS/MS analysis. Format: ADME, organism-based. Conditions: in vivo, time 1-24 hrs.
Data set [25] can be described thus: Oral bioavailability in Sprague-Dawley rat administered at 20 mg/kg measured after 1 to 24 hrs by HPLC-MS/MS analysis. Format: ADME, organism-based. Conditions: in vivo, time 1-24 hrs.
A short description of data set [26]: AUC (0 to infinity) in Sprague-Dawley rat at 20 mg/kg, po measured after 1 to 24 hrs by HPLC-MS/MS analysis. The class given is ADME, organism-based. Conditions: in vivo, time 1-24 hrs.
The nature of data set [27]: Elimination half life in CD-1 mouse at 25 mg/kg, po measured after 1 to 24 hrs by HPLC-MS/MS analysis. The class given is ADME, organism-based. Conditions: in vivo, time 1-24 hrs, read-out: beta t1/2 (converted).
A short description of data set [28]: Microsomal stability in rat liver microsomes assessed as extraction ratio in presence of NADPH for 0 to 40 mins by LC-MS/MS analysis. The class given is ADME, Microsome. Particulars: time 0-40 min, read-out: ERH.
A short description of data set [29]: Cmax in CD-1 mouse at 25 mg/kg, po measured after 1 to 24 hrs by HPLC-MS/MS analysis. Format: ADME, organism-based. Conditions: in vivo, time 1-24 hrs.
Data set [30] can be described thus: Clearance in Sprague-Dawley rat at 5 mg/kg, iv measured after 1 to 24 hrs by HPLC-MS/MS analysis. Format: ADME, organism-based. Conditions: in vivo, time 1-24 hrs.
Data set [31] can be described thus: Plasma concentration in CD-1 mouse at 25 mg/kg, po measured after 24 hrs by HPLC-MS/MS analysis. The class given is ADME, organism-based.
Data set [32] can be described thus: Elimination half life in Sprague-Dawley rat at 20 mg/kg, po measured after 1 to 24 hrs by HPLC-MS/MS analysis. Conditions: in vivo, time 1-24 hrs, read-out: beta t1/2 (converted). The class given is ADME, organism-based.
Data set [33] is described as follows: AUC (0 to infinity) in CD-1 mouse at 25 mg/kg, po measured after 1 to 24 hrs by HPLC-MS/MS analysis. Format: ADME, organism-based. Conditions: in vivo, time 1-24 hrs.
A short description of data set [34]: Volume of distribution at steady state in Sprague-Dawley rat at 5 mg/kg, iv measured after 1 to 24 hrs by HPLC-MS/MS analysis. Particulars: in vivo, time 1-24 hrs, read-out: Vdss. Format: ADME, organism-based.

Values joined by “and” are separate entries in the source; they are usually repeats but may differ in a detail not shown here. Equal entries are not always repeated.

By clearance is commonly meant the volume of plasma or blood freed of the substance per unit of time. Low readings indicate a low capacity for elimination, high ones a high capacity for elimination. Usually IC50 stands for the midpoint of a concentration-inhibition curve. A word on the bioavailability: it is dose-corrected exposure relative to a reference, in per cent. A low value points to poor availability. A word on the Cmax: it is the maximum level reached in the sampled fluid or tissue. The AUC(0-inf) is total exposure, with the tail of the curve extrapolated. Higher therefore signals high exposure. Turning to `Nc1nccn2c(C3CCC3)nc(-c3ccc4ccc(-c5ccccc5)nc4c3)c12`, the half-life in [1] and in [11] was 0.98 h throughout. Also, the clearance in [2] is 90 mL/min/kg. Also, in data set [3], the Vd came to 6.25 L/kg. The concentration at 1 h in [4] was 3200 ng/mL and 8.19 µM. In data set [5], the concentration at 16 h is 1030 ng/mL and 2.64 µM. Also, the IC50 in data set [6] was found to be 3300 nM. In data set [7], the bioavailability amounted to 56%. In data set [8], this molecule returned a Cmax of 2680 nM. Moreover, the concentration at 8 h in data set [9] is 3110 ng/mL and 7.95 µM. This molecule returned an AUC(0-inf) in [10] of 5170 ng·h/mL. Besides, the concentration at 4 h in data set [12] is 1810 ng/mL and 4.62 µM.
Consider `Nc1nccn2c(C3CC(O)C3)nc(-c3ccc4ccc(-c5ccccc5)nc4c3)c12` (stereo not drawn), for which the concentration at 1 h in data set [4] is 4590 ng/mL and 11.3 µM. Also, the concentration at 16 h in data set [5] was 2360 ng/mL and 5.8 µM. In addition, the concentration at 8 h in data set [9] is 4650 ng/mL and 11.4 µM. Besides, the concentration at 4 h in data set [12] was 3660 ng/mL and 8.99 µM.
Regarding `CN1CCN([C@H]2C[C@@H](c3nc(-c4ccc5ccc(-c6ccccc6)nc5c4)c4c(N)nccn43)C2)CC1`, the bioavailability in data set [13] and in data set [25] was 100% in each case. Moreover, the half-maximal inhibitory concentration (IC50) was 19 nM in [14], 24 nM in data set [15] and 8300 nM in [6]. Further, the hepatic extraction ratio in [16] stood at 0.59; in [18], 0.53; in data set [21], 0.5; in data set [28], 0.21. For the same molecule, the half-life in [17] was 5 h; in data set [23], 20 h; in data set [27], 23.6 h; in data set [32] it was 28.7 h. The Vd in [19] turned out to be 8 L/kg; in data set [34], 21 L/kg. Also, the figures for the Cmax in data set [20] and in data set [29] were 1350 nM and 2200 nM, respectively. For the same molecule, the concentration at 24 h is 740 nM in data set [22] and 1040 nM in data set [31]. Besides, the clearance in data set [24] turned out to be 19 mL/min/kg; in data set [30], 16 mL/min/kg. Further, the AUC(0-inf) in [26] was determined as 28700 ng·h/mL; in data set [33], 34500 ng·h/mL.
In the case of `Nc1nccn2c1c(-c1ccc3ccc(-c4ccccc4)nc3c1)nc2[C@H]1CC[C@H](C(N)=O)CC1`, in [14], the IC50 amounted to 42 nM. Also, the bioavailability in [7] was found to be 77%. In data set [8], this molecule had a peak concentration (Cmax) of 11400 nM. In addition, the area under the curve AUC(0-inf) in [10] came to 52500 ng·h/mL.

(Values after ChEMBL document CHEMBL5661980, “Discovery of OSI-906: a selective and orally efficacious dual inhibitor of the IGF-1 receptor and insulin receptor” (Future Med Chem, 2009).)
